# Measured values published in patent US8916523B2, “VIP fragments and methods of use” (Vectus Biosystems Limited, priority 2005, dated 2014).
# Ends that are not written are not given here.
# Tested on: WKY rats on a high salt diet
# Test: Effect of VIP fragment treatment on regression of existing myocardial fibrosis
# Assay type: in vivo, rat
# Details: 18 week old WKY rats after 4 weeks high salt diet and infusion 5 pmol/kg/min vs untreated 14 week old rats (zero time), preliminary results, FIG. 2
# Procedure: To determine whether VIP (6-16) (SEQ ID NO: 72), VIP(6-20) (SEQ ID NO: 76) and VIP(6-24) (SEQ ID NO: 80) infusion caused regression of existing fibrosis as well as prevented progression of fibrosis two groups of studies were performed. The degree of myocardial fibrosis in untreated 14 week old WKY rats was compared with the degree of fibrosis in 18 week old WKY rats after 4 weeks treatment with a high salt diet or a high salt diet plus L-NAME (10 mg/kg/day) and either VIP (6-16) (SEQ ID NO: 72), VIP(6-20) (SEQ ID NO: 76) and VIP(6-24) (SEQ ID NO: 80) (5 pmol/kg/min) or vehicle control infusion (see FIG. 2)
# The regression of fibrosis may be due to either reduction in collagen formation or enhancement of its degradation.
row,Substance,regression of myocardial fibrosis
1,FTDNYTRLRKQ [VIP(6-16)],regression of myocardial fibrosis

# Tested on: Spontaneous Hypertensive Rats (SHR)
# Test: Effect of VIP fragment treatment on blood pressure (tail cuff plethysmography) in animal model of hypertension
# Assay type: in vivo, rat
# Details: SHR on 2.2% salt diet for 4 weeks, peptide infused at 5 pmol/kg/min for 4 weeks, FIGS. 6-9
# From the text: To determine whether VIP and fragments were effective in controlling blood pressure, Spontaneous Hypertensive Rats (SHR) were acclimated to blood pressure measurement by tail cuff plethysmography and then they were placed on a 2.2% salt diet for 4 weeks.
# The rats were randomized to Control (Hartman's Solution) vehicle infusion, VIP(1-28) ([…] (SEQ ID NO: 1), VIP(4-10) (Ala-Val-Phe-Thr-Asp-Asn-Tyr) (SEQ ID NO: 29), VIP(4-12) (Ala-Val-Phe-Thr-Asp-Asn-Tyr-Thr-Arg) (SEQ ID NO: 31), VIP(4-16) (Ala-Val-Phe-Thr-Asp-Asn-Tyr-Thr-Arg-Leu-Arg-Lys-Gln) (SEQ ID NO: 35), VIP(4-20) (Ala-Val-Phe-Thr-Asp-Asn-Tyr-Thr-Arg-Leu-Arg-Lys-Gln-Met-Ala-Val-Lys) (SEQ ID NO: 39), VIP(4-24) ([…] (SEQ ID NO: 43), VIP(4-28) ([…] (SEQ ID NO: 90), VIP(6-10) (Phe-Thr-Asp-Asn-Tyr) (SEQ ID NO: 66), VIP(6-12) (Phe-Thr-Asp-Asn-Tyr-Thr-Arg) (SEQ ID NO: 68), VIP(6-16) (Phe-Thr-Asp-Asn-Tyr-Thr-Arg-Leu-Arg-Lys-Gln) (SEQ ID NO: 72), VIP(6-20) (Phe-Thr-Asp-Asn-Tyr-Thr-Arg-Leu-Arg-Lys-Gln-Met-Ala-Val-Lys) (SEQ ID NO: 76), VIP(6-24) (Phe-Thr-Asp-Asn-Tyr-Thr-Arg-Leu-Arg-Lys-Gln-Met-Ala-Val-Lys-Lys-Tyr-Leu-Asn) (SEQ ID NO: 80), VIP(6-28) ([…] (SEQ ID NO: 84), VIP(16-20) (Gln-Met-Ala-Val-Lys) (SEQ ID NO: 20), VIP(16-24) (Gln-Met-Ala-Val-Lys-Lys-Tyr-Leu-Asn) (SEQ ID NO: 93), VIP(16-28) (Gln-Met-Ala-Val-Lys-Lys-Tyr-Leu-Asn-Ser-Ile-Leu-Asn) (SEQ ID NO: 88), VIP(1-12) (His-Ser-Asp-Ala-Val-Phe-Thr-Asp-Asn-Tyr-Thr-Arg) (SEQ ID NO: 91) and VIP(10-28) (Tyr-Thr-Arg-Leu-Arg-Lys-Gln-Met-Ala-Val-Lys-Lys-Tyr-Leu-Asn-Ser-Ile-Leu-Asn) (SEQ ID NO: 92), VIP(4-10) (Ala-Val-Phe-Thr-Asp-Asn-Tyr) (SEQ ID NO: 29).
# Each peptide was infused at 5 pmol/kg/min
# Blood pressure was measured by tail cuff plethysmography twice weekly for 4 weeks.
row,Substance,reduction in systolic blood pressure (SBP) relative to the control solution
1,AVFTDNYTR [VIP(4-12)],significant reductions in SBP
2,AVFTDNYTRLRKQ [VIP(4-16)],significant reductions in SBP
3,AVFTDNYTRLRKQMAVK [VIP(4-20)],significant reductions in SBP
4,AVFTDNYTRLRKQMAVKKYLN [VIP(4-24)],significant reductions in SBP
5,AVFTDNYTRLRKQMAVKKYLNSILN [VIP(4-28)],significant reductions in SBP
6,FTDNYTRLRKQMAVK [VIP(6-20)],significant reductions in SBP
7,FTDNYTRLRKQMAVKKYLN [VIP(6-24)],significant reductions in SBP
8,"His-Ser-Asp-Ala-Val-Phe-Thr-Asp-Asn-Tyr-Thr-Arg-Leu-Arg-Lys-Gln-Met-Ala-Val-Lys-Lys-Tyr-Leu-Asn-Ser-Ile-Leu-Asn (HSDAVFTDNYTRLRKQMAVKKYLNSILN; listed as Homo sapiens) [VIP, reference compound]",not seen to have any significant effect in reducing SBP
9,"Phe-Thr-Asp-Asn-Tyr-Thr-Arg-Leu-Arg-Lys-Gln-Met-Ala-Val-Lys-Lys-Tyr-Leu-Asn-Ser-Ile-Leu-Asn (FTDNYTRLRKQMAVKKYLNSILN; listed as Homo sapiens) [VIP(6-28), VIP fragment described earlier in PCT/AU2005/000835, not included in the present invention, reference compound]",significant reductions in SBP

# Same assay, conditions: SHR on high salt diet, 5 pmol/kg/min for 4 weeks, FIG. 6
row,Substance,relative efficacy in reducing SBP compared with VIP(4-12) and VIP(4-20)
1,AVFTDNYTRLRKQ [VIP(4-16)],less efficacious

# Tested on: myocardial fibrosis
# Test: not given
# Details: disclosed in PCT/AU2005/000835; cited from earlier work
row,Substance,effectiveness for preventing myocardial fibrosis
1,"Phe-Thr-Asp-Asn-Tyr-Thr-Arg-Leu-Arg-Lys-Gln-Met-Ala-Val-Lys-Lys-Tyr-Leu-Asn-Ser-Ile-Leu-Asn (FTDNYTRLRKQMAVKKYLNSILN; listed as Homo sapiens) [VIP(6-28), VIP fragment described earlier in PCT/AU2005/000835, not included in the present invention, reference compound]",effective for preventing myocardial fibrosis
